The record followed here is ChEMBL document CHEMBL5137078, “Lysine-Tethered Stable Bicyclic Cationic Antimicrobial Peptide Combats Bacterial Infection in Vivo” (J Med Chem, 2022).

Common to all, as to assay type: functional
For test [1], the system named is Staphylococcus aureus. Put plainly: Antibacterial activity against Staphylococcus aureus BNCC 186335 measured after 16 hrs by microdilution assay.
In another test the test system is Acinetobacter baumannii. Nature of the test: Antibacterial activity against multidrug-resistant Acinetobacter baumannii measured after 16 hrs by microdilution assay.
For test [2], the system named is Staphylococcus aureus. Nature of the test: Antibacterial activity against methicillin-resistant Staphylococcus aureus BNCC 186335 measured after 16 hrs by microdilution assay.
The subject of test [3] is Escherichia coli. Nature of the test: Antibacterial activity against multidrug-resistant Escherichia coli BNCC 133264 measured after 16 hrs by microdilution assay.
The test system of test [4] is Escherichia coli. Put plainly: Antibacterial activity against Escherichia coli BNCC 133264 measured after 16 hrs by microdilution assay.
The test system of test [5] is Pseudomonas aeruginosa. Put plainly: Antibacterial activity against Pseudomonas aeruginosa BNCC 125486 measured after 16 hrs by microdilution assay.
Test [6] concerns Pseudomonas aeruginosa. Put plainly: Antibacterial activity against multidrug-resistant Pseudomonas aeruginosa BNCC 125486 measured after 16 hrs by microdilution assay.
Another test has as its system Listeria monocytogenes. Put plainly: Antibacterial activity against Listeria monocytogenes measured after 16 hrs by microdilution assay.

Values after ≈ are worked out from the molar mass of the structure shown.

On to `CCN1CCN(C(=O)N[C@@H](C(=O)N[C@@H]2C(=O)N3C(C(=O)O)=C(CSc4nnnn4C)CS[C@H]23)c2ccc(O)cc2)C(=O)C1=O` [CEFOPERAZONE], for which the MIC99.9 in the test with Staphylococcus aureus [1] is less than 1 µg/mL; against Acinetobacter baumannii, more than 128 µg/mL; in the test with Staphylococcus aureus [2] it was more than 128 µg/mL; in the test with Escherichia coli [3] it was more than 128 µg/mL; against Escherichia coli [4], less than 1 µg/mL; against Pseudomonas aeruginosa [5], 2 µg/mL (≈ 3.1 µM). The MIC99.9 against Pseudomonas aeruginosa [6] came out at 128 µg/mL (≈ 198 µM); with Listeria monocytogenes it was 16 µg/mL (≈ 24.8 µM).
Consider `CN[C@H](CC(C)C)C(=O)N[C@H]1C(=O)N[C@@H](CC(N)=O)C(=O)N[C@H]2C(=O)N[C@H]3C(=O)N[C@H](C(=O)N[C@H](C(=O)O)c4cc(O)cc(O)c4-c4cc3ccc4O)[C@H](O)c3ccc(c(Cl)c3)Oc3cc2cc(c3O[C@@H]2O[C@H](CO)[C@@H](O)[C@H](O)[C@H]2O[C@H]2C[C@](C)(N)[C@H](O)[C@H](C)O2)Oc2ccc(cc2Cl)[C@H]1O` [VANCOMYCIN], for which the MIC99.9 is 2 µg/mL (≈ 1.38 µM) with Staphylococcus aureus [1]; more than 128 µg/mL against Acinetobacter baumannii; 2 µg/mL (≈ 1.38 µM) in the test on Staphylococcus aureus [2]; more than 128 µg/mL in the test on Escherichia coli [3]; more than 128 µg/mL against Escherichia coli [4]; more than 128 µg/mL in the test on Pseudomonas aeruginosa [5]. The MIC99.9 against Pseudomonas aeruginosa [6] was more than 128 µg/mL; in the test with Listeria monocytogenes, 1 µg/mL (≈ 0.69 µM).
